Test results reported in US4544660A, “Pharmaceutically active tropanes” (Beecham Group p.l.c., priority 1978, dated 1985).

Tests used:
Type in all cases: in vivo
Dopamine Receptor [1] = experiment: Inhibition of apomorphine induced stereotype behaviour in the rat; conditions: s.c., apomorphine induced, complete inhibition, IA(x) = inactive at dose in brackets
Text: (§1) I. Dopamine Receptor Blocking Activity in the Central Nervous System
(a) Inhibition of apomorphine induced stereotype behaviour in the rat
(method of Ernst (1967), Psychopharmacologia (Berl.) 10 316-323).

gastric emptying = experiment: Increase in gastric emptying: reversal of apomorphine induced delay in gastric emptying in the rat; design: key to III(b) Increase in Gastric Emptying: IA: inactive at the dose in the brackets, mg/Kg s.c; conditions: 10 mg/kg s.c.; for III(b) Increase in Gastric Emptying: apomorphine HCl 5 mg/kg s.c. induced delay
Method: (b) Increase in gastric emptying: reversal of apomorphine induced delay in gastric emptying in the rat
Rats equipped with chromic gastric fistulae were used and it was through this that 5 ml of a test meal (5 ml phosphate buffer at pH 9) was administered and recovered. The % recovery of the standard meal after remaining in the stomach for 10 minutes was taken as an index of gastric emptying. Delay in gastric emptying was induced by the administration of apomorphine HCl (5 mg/kg subcutaneously) which was given 15 minutes prior to the subcutaneous administration of the compound. The % recoveries of the test meal were determined at 15-25 and 45-55 minutes post-dosing with the compound and compared with vehicle only dosed animals set up simultaneously. Six animals were used for each group.

vomiting response = experiment: Anti-emetic activity in the dog (apomorphine induced vomiting); conditions: Canis lupus familiaris, 30 min before apomorphine HCl 0.1 mg/kg s.c.; for ED100: s.c., complete inhibition, read-out: II Anti-Emetic Activity Dose, Complete Inhibition
Method: II. Anti-emetic activity in the dog
Compounds were administered subcutaneously 30 minutes prior to administration of a standard dose of apomorphine HCl (0.1 mg/kg subcutaneously) and the vomiting response compared to that obtained when the same animals were dosed with apomorphine HCl and vehicle only.

Dopamine Receptor [2] = experiment: Inhibition of apomorphine induced climbing in the mouse; conditions: p.o., apomorphine 1 mg/kg s.c., complete inhibition
Method: as §1
(b) Inhibition of apomorphine induced climbing in the mouse
The test is based on that described by Protais, P., Constantin, J. and Schwartz J.C. (1976), Psychopharmacology, 50, 1-6.
Apomorphine 1 mg/kg s.c. induces mice to climb the wall of a wire cage (inverted food hopper--11×7.5×18 cm high). Mice acclimatised in their home cages in groups of 5 are placed under the hoppers immediately after the injection of apomorphine 1 mg/kg s.c. At 10,20 and 30 minutes after injection climbing behaviour is scored. The mice are observed for 30 seconds and scored according to the position they spend the majority of time in, score 0--four paws on floor of cage; score 1--fore paws only on walls; score 2--all paws on wall of cage. The scores at all 3 times and for each mouse are summed and mice drug treated orally compared to mice receiving apomorphine only. A saline only treated group is also included and any score, generally <5% of maximum taken into account.

intragastric pressure = experiment: Increase in intragastric pressure in the rat; design: III(a) Increase in Intragastric Pressure Dose (minimum dose for activity): unit not given here; conditions: s.c., 40 minute period after administration; for minimal effective dose: sc, 40 min, read-out: III(a) Increase in Intragastric Pressure Dose (minimum dose for activity)
Method: (a) Increase in intragastric pressure in the rat
Intragastric pressure changes were recorded from previously starved conscious but restrained rats using a saline filled catheter inserted into the lumen of the stomach via a permanent gastric fistula. The catheter was connected to a physiological pressure transducer and pressure changes recorded on a hot wire pen recorder. In each animal a pre-dose period of 40 minutes was allowed to obtain a measure of spontaneous activity. An index of activity was obtained by measuring the average height of pressure waves during 10 minute periods. Values for 4 such periods were obtained during assessment of spontaneous activity and for the 40 minute period after the subcutaneous administration of the compounds. Students `t` test was applied to the difference in average values obtained for spontaneous and post-compound activity.

COc1cc(N)c(Cl)cc1C(=O)NC1CC2CCC(C1)N2Cc1ccccc1 (stereo not drawn) [Compound 2, 4-amino-5-chloro-2-methoxy-N-(3'α, 8-[8'-benzyl]8-azabicyclo[3,2,1]octyl)benzamide]
I(a) Dose Inhibiting Stereotype Behaviour (dose for complete inhibition) (Dopamine Receptor [1]): 10 mg/kg | % Recovery of test meal, mean ± S.E. of mean, 15-25 mins. (gastric emptying; 15-25 mins post dosing, apomorphine, printed with **, apomorphine + vehicle 72.4 ± 5.1): 37.4 ± 6.7% | % Recovery of test meal, mean ± S.E. of mean, 45-55 mins. (gastric emptying; 45-55 mins post dosing, apomorphine, printed with ***, apomorphine + vehicle 60.7 ± 7.3): 18.3 ± 1.1% | ED100 (vomiting response): 0.0025 mg/kg

COc1cc(N)c(Cl)cc1C(=O)N[C@H]1C[C@H]2CC[C@@H](C1)N2Cc1ccccc1 [Compound 3, 4-amino-5-chloro-2-methoxy-N-(3',α-[8'-benzyl]nortropyl)benzamide]
I(a) Dose Inhibiting Stereotype Behaviour (dose for complete inhibition) (Dopamine Receptor [1]): 50 mg/kg | ED100 (vomiting response): 0.05 mg/kg

COc1cc(N)c(Cl)cc1C(=O)N(C)[C@H]1C[C@H]2CC[C@@H](C1)N2Cc1ccccc1 [Compound 6, 4-Amino-5-chloro-2-methoxy-N-methyl-N-(3'α-[8'-benzyl-8'-azabicyclo[3.2.1]octyl])benzamide]
I(b) Anti-Climbing Activity Dose, Complete Inhibition (Dopamine Receptor [2]): IA (inactive at 10 mg/Kg p.o.) | I(a) Dose Inhibiting Stereotype Behaviour (dose for complete inhibition) (Dopamine Receptor [1]): IA(50) | minimal effective dose (intragastric pressure): 10 mg/kg | III(b) Increase in Gastric Emptying (gastric emptying): IA(50)

COc1ccc(S(N)(=O)=O)cc1C(=O)N[C@@H]1C[C@H]2CC[C@@H](C1)N2Cc1ccccc1 [Compound 8, 5-Sulphamoyl-2-methoxy-N-(3'β-[8'-benzyl]-8'-azabicyclo-[3.2.1]-octyl)-benzamide]
I(b) Anti-Climbing Activity Dose, Complete Inhibition (Dopamine Receptor [2]): IA (inactive at 10 mg/Kg p.o.) | III(a) Increase in Intragastric Pressure Dose (minimum dose for activity) (intragastric pressure): IA(5) | ED100 (vomiting response): 0.1 mg/kg

COc1ccccc1C(=O)N[C@@H]1C[C@H]2CC[C@@H](C1)N2Cc1ccccc1 [Compound 9, 2-Methoxy-N-(3'β-[8'-benzyl-8'-azabicyclo-[3.2.1]-octyl])-benzamide]
I(b) Anti-Climbing Activity Dose, Complete Inhibition (Dopamine Receptor [2]): 10 mg/kg | ED100 (vomiting response): 0.1 mg/kg

COc1cc(N)c(Cl)cc1C(=O)N[C@@H]1C[C@H]2CC[C@@H](C1)[N+]2(C)Cc1ccccc1 (stereo partly drawn) [Compound 10, 4-Amino-5-chloro-2-methoxy-N-(3'β-[8'-benzyl]-8'-azabicyclo[3.2.1]octyl)-benzamide methobromide]
I(b) Anti-Climbing Activity Dose, Complete Inhibition (Dopamine Receptor [2]): IA(2) | minimal effective dose (intragastric pressure): 0.25 mg/kg

COc1cc(N)c(Cl)cc1C(=O)N[C@H]1C[C@H]2CCC[C@@H](C1)N2Cc1ccccc1 [Compound 11, 4-amino-5-chloro-2-methoxy-N-(3'α-[9'-benzyl-9'-azabicyclo-[3,3,1]-nonyl])-benzamide]
I(b) Anti-Climbing Activity Dose, Complete Inhibition (Dopamine Receptor [2]): IA (inactive at 10 mg/Kg p.o.) | I(a) Dose Inhibiting Stereotype Behaviour (dose for complete inhibition) (Dopamine Receptor [1]): IA(50) | minimal effective dose (intragastric pressure): 1 mg/kg

COc1ccc(CN2[C@@H]3CC[C@H]2C[C@H](NC(=O)c2cc(Cl)c(N)cc2OC)C3)cc1 [Compound 14, 4amino-5-chloro-2-methoxy-N-(3β-[8'[4"methoxybenzyl]-8'-azabicyclo[3.2.1]octyl])-benzamide]
I(b) Anti-Climbing Activity Dose, Complete Inhibition (Dopamine Receptor [2]): 10 mg/kg | ED100 (vomiting response): 0.1 mg/kg

CCOc1ccc(CN2[C@@H]3CC[C@H]2C[C@H](NC(=O)c2cc(Cl)c(N)cc2OC)C3)cc1 [Compound 15, 4amino-5-chloro-2-methoxy-N-(3β-[8'[4"ethoxybenzyl]-8'-azabicyclo[3.2.1]octyl])-benzamide]
I(b) Anti-Climbing Activity Dose, Complete Inhibition (Dopamine Receptor [2]): 10 mg/kg | ED100 (vomiting response): 0.1 mg/kg

COc1cc(N)c(Cl)cc1C(=O)N[C@@H]1C[C@H]2CC[C@@H](C1)N2Cc1ccc(Cl)cc1 [Compound 16, 4amino-5-chloro-2-methoxy-N-(3β-[8'[4"chlorobenzyl]-8'-azabicyclo[3.2.1]octyl])-benzamide]
I(b) Anti-Climbing Activity Dose, Complete Inhibition (Dopamine Receptor [2]): 2 mg/kg

COc1cc(N)c(Cl)cc1C(=O)N[C@H]1C[C@H]2CCC[C@@H](C1)N2C [Compound 21, 4-amino-5-chloro-2-methoxy-N-(3'α-[9'-methyl-9'-azabicyclo[3.3.1]nonyl])benzamide]
I(b) Anti-Climbing Activity Dose, Complete Inhibition (Dopamine Receptor [2]): 10 mg/kg | I(a) Dose Inhibiting Stereotype Behaviour (dose for complete inhibition) (Dopamine Receptor [1]): IA(50) | minimal effective dose (intragastric pressure): 5 mg/kg

COc1cc(N)c(Cl)cc1C(=O)N[C@@H]1C[C@H]2CCC[C@@H](C1)N2C [Compound 22, 4-amino-5-chloro-2-methoxy-N-(3'β-[9'-methyl-9'-azabicyclo[3.3.1]-nonyl])-benzamide]
I(b) Anti-Climbing Activity Dose, Complete Inhibition (Dopamine Receptor [2]): IA (inactive at 10 mg/Kg p.o.) | I(a) Dose Inhibiting Stereotype Behaviour (dose for complete inhibition) (Dopamine Receptor [1]): IA(25) | minimal effective dose (intragastric pressure): 1 mg/kg | III(b) Increase in Gastric Emptying (gastric emptying): IA(25)

CCN1[C@@H]2CC[C@H]1C[C@H](NC(=O)c1cc(Cl)c(N)cc1OC)C2 [Compound 23, 4-amino-5-chloro-2-methoxy-N-(3'β-[8'-ethyl-8'-azabicyclo[3.2.1]octyl])benzamide]
I(b) Anti-Climbing Activity Dose, Complete Inhibition (Dopamine Receptor [2]): IA (inactive at 10 mg/Kg p.o.) | I(a) Dose Inhibiting Stereotype Behaviour (dose for complete inhibition) (Dopamine Receptor [1]): IA(25) | minimal effective dose (intragastric pressure): 1 to 10 mg/kg | III(b) Increase in Gastric Emptying (gastric emptying): 25% | ED100 (vomiting response): 1.6 mg/kg

CCCN1[C@@H]2CC[C@H]1C[C@H](NC(=O)c1cc(Cl)c(N)cc1OC)C2 [Compound 24, 4-amino-5-chloro-2-methoxy-N-(3'β-[8'-n-propyl-8'-azabicyclo[3.2.1]-octyl])benzamide]
I(b) Anti-Climbing Activity Dose, Complete Inhibition (Dopamine Receptor [2]): IA (inactive at 10 mg/Kg p.o.) | I(a) Dose Inhibiting Stereotype Behaviour (dose for complete inhibition) (Dopamine Receptor [1]): IA(25) | minimal effective dose (intragastric pressure): 5 to 10 mg/kg | III(b) Increase in Gastric Emptying (gastric emptying): IA(25) | ED100 (vomiting response): 0.4 mg/kg

COc1cc(N)c(Cl)cc1C(=O)N[C@@H]1C[C@H]2CC[C@@H](C1)N2C(C)C [Compound 25, 4-amino-5-chloro-2-methoxy-N-(3'β-[8'-iso-propyl-8'-azabicyclo[3.2.1]-octyl])benzamide]
I(b) Anti-Climbing Activity Dose, Complete Inhibition (Dopamine Receptor [2]): IA (inactive at 10 mg/Kg p.o.) | I(a) Dose Inhibiting Stereotype Behaviour (dose for complete inhibition) (Dopamine Receptor [1]): IA(25) | minimal effective dose (intragastric pressure): 5 mg/kg | III(b) Increase in Gastric Emptying (gastric emptying): IA | ED50 (vomiting response; sc, ED50, read-out: II Anti-Emetic Activity Dose, ED50): 0.8 mg/kg

COc1cc(N)c(Cl)cc1C(=O)N[C@@H]1C[C@H]2CC[C@@H](C1)N2CC(C)C [Compound 28, 4-amino-5-chloro-2-methoxy-N-(3'β-[8'-isobutyl-8'-azabicyclo-[3.2.1]-octyl])-benzamide]
minimal effective dose (intragastric pressure): 5 mg/kg | ED100 (vomiting response): 0.2 mg/kg

COc1cc(N)c(Cl)cc1C(=O)N[C@@H]1C[C@H]2CC[C@@H](C1)N2C1CCCCC1 [Compound 31, 4-amino-5-chloro-2-methoxy-N-(3'β-[8'-cyclohexyl-8-azabicyclo[3.2.1]octyl])benzamide]
I(b) Anti-Climbing Activity Dose, Complete Inhibition (Dopamine Receptor [2]): IA (inactive at 10 mg/Kg p.o.) | ED100 (vomiting response): 0.25 mg/kg

C=CCN1[C@@H]2CC[C@H]1C[C@H](NC(=O)c1cc(Cl)c(N)cc1OC)C2 [Compound 32, 4-amino-5-chloro-2-methoxy-N-(3'β-[8'-ally-8-azabicyclo[3.2.1]octyl])benzamide]
ED100 (vomiting response): 0.2 mg/kg
